Earlier results as cited in patent US20200404921A1, “SOIL TREATMENT WITH METAM SALTS AND ONE OR MORE OF CALCIUM THIOSULFATE, CALCIUM CHLORIDE AND CALCIUM NITRATE” (Tessenderlo Kerley, Inc., priority 2018, published 2020).

Legend:
[1] = more soluble than gypsum
soilborne disease = settings: about 40 gallons of metam sodium per acre (190 Kg of active ingredient/ha), commercial conditions

Compound | solubility relative to gypsum [1] [times] | reduction of certain soilborne disease (soilborne disease) [%]
O=S([O-])([O-])=S.[Ca+2] [calcium thiosulfate] | 125 | 
CNC(=S)S [metam sodium, sodium methyldithiocarbamate] |  | ~70
